Values quoted from earlier work as cited in patent US11819508B2 (priority 2020, dated 2023).
Like-named read-outs stand apart in the source and are kept apart here.

B1: IFN β-1b: cytokine in the interferon family, subcutaneous (protein, UniProt P01574 22-187, looked up, variant C17S)
Interferon beta: MSYNLLGFLQRSSNFQSQKLLWQLNGRLEYCLKDRMNFDIPEEIKQLQQFQKEDAALTIYEMLQNIFAIFRQDSSSTGWNETIVENLLANVYHQINHLKTVLEEKLEKEDFTRGKLMSSLHLKRYYGRILHYLKAKEYSHCAWTIVRVEILRNFYFINRLTGYLRN
modifications: lacks N-terminal Met1, non-glycosylated
notes: cytokine in the interferon family, subcutaneous

Legend:
[1] = in vivo
[2] = test system: Covid-19; details: subcutaneous; subjects hospitalized with Covid-19

Molecule	half-life [1]	solubility (in aqueous solutions)	solubility (in water or saline solutions)	solubility (in water, 0.1 N HCl or NaOH, methanol, and ethanol)	clinical improvement as assessed by NEWS 2 and SOFA score and shortened hospital stay [2]
2-[[(hexadecyloxy)hydroxyphosphenyl]oxy]-N,N,N-trimethylethylammonium inner salt [Miltefosine]	long half-life	freely soluble	readily soluble	freely soluble	–
B1	–	–	–	–	clinical improvement
